Measurements from patent publication US10874745B2, “Antimicrobial peptides and methods of treating gram-negative pathogens: polar and non-polar face analogs” (priority 2017, dated 2020).
Where “and” joins values, the source holds several entries; their conditions need not be identical. Identical values can stand only once. Like-named read-outs stand apart in the source and are kept apart here. Non-standard residues stand in square brackets, D forms with d. Residues, ends and D or L forms follow the SMILES beside them. dDab = NCC[C@@H](N)C(=O)O

Tests used:
[1] = system: A. baumannii clinical isolates; experiment: MIC, microtiter dilution in Mueller Hinton medium; type: cell-based; details: geometric mean, 7 clinical isolates of A. baumannii
Description: (§2) Gram-Negative Bacterial Strains used in this Study: All the A. baumannii strains used in this study were 1) obtained from the collection of Dr. Anthony A. Campagnari at the University of Buffalo and originally isolated from different patients and organs/tissues (strain 649, blood; strain 689, groin; strain 759, gluteus; strain 884, axilla; strain 985, pleural fluid); 2) were purchased from the American Type Culture Collection (ATCC, Manassas, Va., USA) (strain ATCC 17978, fatal meningitis; and strain ATCC 19606, urine); 3) obtained from MERCK (M89941, M89949, M89951, M89952, M89953, M89955 and M89963). These seven A. baumannii strains were resistant to polymyxin B and polymyxin E (Colistin).
(§3) Measurement of Antimicrobial Activity (MIC): The minimal inhibitory concentration (MIC) is defined as the lowest peptide concentration that inhibited bacterial growth. MICs were measured by a standard microtiter dilution method in Mueller Hinton (MH) medium. Briefly, cells were grown overnight at 37° C. in MH broth and were diluted in the same medium. […] The plates were incubated at 37° C. for 24 h, and the MICs were determined.

[2] = system: A. baumannii strains resistant to Polymyxin B and Colistin; type: cell-based; details: geometric mean, 7 A. baumannii strains resistant to polymyxin B and colistin
Description: as §2, §3

[3] = system: clinical isolates of Pseudomonas aeruginosa; type: cell-based; details: geometric mean, 6 clinical isolates of P. aeruginosa
Experimental: as §3

[4] = Hemolytic activity; type: cell-based, human; details: 1% human erythrocytes (red blood cells), pH 7.4
Experimental: (§1) Hemoglobin release was determined spectrophotometrically at 570 nm. […] […] […] With the peptides used in this study the inventors used the HC30/MIC ratio value to calculate the therapeutic index.

[5] = system: human red blood cells; experiment: Hemolytic activity; type: cell-based; details: for HC50: 50% hemolysis of human red blood cells after 18 hours at 37° C.
Experimental: as §1

[6] = RP-HPLC retention time as measure of overall peptide hydrophobicity; type: physicochemical; details: Zorbax SB-C8, 0.5% B/min from 2% B, 30° C. (Table 3)
Description: Retention behavior in RP-HPLC is an excellent method to represent overall peptide hydrophobicity. Retention times of peptides are highly sensitive to the conformational status of the peptides upon interaction with the hydrophobic environment of the column matrix (Jiang, Z., et al., Chem. Biol. Drug Des. 2011; Chen, Y., et al., J. Peptide Research 2002, supra). The non-polar faces of amphipathic alpha-helical and amphipathic cyclic beta-sheet peptides represent a preferred binding domain for interaction with the hydrophobic matrix of the reversed-phase column (Zhou, N. E., et al., Peptide Research 1990, 3:8-20). In this study, the observed peptide hydrophobicity was determined by RP-HPLC retention time as described in the methods section and are relative hydrophobicities because they are dependent on the TFA concentration and organic solvent in the mobile phase, gradient rate, temperature, flow rate and the column used. […]

[7] = 50% hemolysis of human red blood cells after 18 hours at 37° C., read-out: HC50

CC(=O)N[C@H](C)C(=O)N[C@H](CC(C)C)C(=O)N[C@H](CCCCN)C(=O)N[C@H](CCCCN)C(=O)N[C@H](CC(C)C)C(=O)N[C@H](CC(C)C)C(=O)N[C@H](CCCCN)C(=O)N[C@@H](C(=O)N[C@H](CC(C)C)C(=O)N[C@H](CO)C(=O)N[C@H](CCCCN)C(=O)N[C@H](C)C(=O)N[C@H](CCN)C(=O)N[C@H](C)C(=O)N[C@H](C)C(=O)N[C@H](CCN)C(=O)N[C@H](CC(C)C)C(=O)N[C@H](CCCCN)C(=O)N[C@@H](C(=O)N[C@H](CC(C)C)C(=O)N[C@H](CC(C)C)C(=O)N[C@H](CCCCN)C(=O)N[C@H](C)C(=O)N[C@H](CC(C)C)C(=O)N[C@H](CO)C(=O)N[C@H](CCCCN)C(N)=O)[C@H](C)O)[C@H](C)O [D41(Dbu13/Dbu16)] (Ac-[dA][dL][dK][dK][dL][dL][dK][dT][dL][dS][dK][dA][dDab][dA][dA][dDab][dL][dK][dT][dL][dL][dK][dA][dL][dS][dK]-NH2; N-terminus and C-terminus assumed)
MICGM [1]: 0.6 µM | MICGM [2]: 0.5 µM | MICGM [3]: 0.8 µM | HC50 at 18 h [4, 7]: 24.3 µM and 68 µg/mL | HC50 [5]: 24.3 µM

CC(=O)N[C@H](C)C(=O)N[C@H](CC(C)C)C(=O)N[C@H](CCCCN)C(=O)N[C@H](CCCCN)C(=O)N[C@H](CC(C)C)C(=O)N[C@H](CC(C)C)C(=O)N[C@H](CCCCN)C(=O)N[C@@H](C(=O)N[C@H](CC(C)C)C(=O)N[C@H](CO)C(=O)N[C@H](CCCCN)C(=O)N[C@H](C)C(=O)N[C@H](CN)C(=O)N[C@H](C)C(=O)N[C@H](C)C(=O)N[C@H](CN)C(=O)N[C@H](CC(C)C)C(=O)N[C@H](CCCCN)C(=O)N[C@@H](C(=O)N[C@H](CC(C)C)C(=O)N[C@H](CC(C)C)C(=O)N[C@H](CCCCN)C(=O)N[C@H](C)C(=O)N[C@H](CC(C)C)C(=O)N[C@H](CO)C(=O)N[C@H](CCCCN)C(N)=O)[C@H](C)O)[C@H](C)O [D41(Dpr13/Dpr16)]
MICGM [1]: 0.6 µM | MICGM [2]: 0.7 µM | MICGM [3]: 1.3 µM | HC50 at 18 h [4, 7]: 22.6 µM and 62.5 µg/mL | HC50 [5]: 22.6 µM

CC(=O)N[C@H](C)C(=O)N[C@H](CC(C)C)C(=O)N[C@H](CCCCN)C(=O)N[C@H](CCCCN)C(=O)N[C@H](CC(C)C)C(=O)N[C@H](CC(C)C)C(=O)N[C@H](CCCCN)C(=O)N[C@@H](C(=O)N[C@H](CC(C)C)C(=O)N[C@H](CO)C(=O)N[C@H](CCCCN)C(=O)N[C@H](C)C(=O)N[C@H](CCCCN)C(=O)N[C@H](C)C(=O)N[C@H](C)C(=O)N[C@H](CCCCN)C(=O)N[C@H](CC(C)C)C(=O)N[C@H](CCCCN)C(=O)N[C@@H](C(=O)N[C@H](CC(C)C)C(=O)N[C@H](CC(C)C)C(=O)N[C@H](CCCCN)C(=O)N[C@H](C)C(=O)N[C@H](CC(C)C)C(=O)N[C@H](CO)C(=O)N[C@H](CCCCN)C(N)=O)[C@H](C)O)[C@H](C)O [D41(Lys13/Lys16)]
MICGM [1]: 0.4 µM | MICGM [2]: 0.4 µM | MICGM [3]: 0.8 µM | HC50 at 18 h [4, 7]: 13.7 µM and 39 µg/mL | HC50 [5]: 13.7 µM

CC(=O)N[C@H](C)C(=O)N[C@H](CC(C)C)C(=O)N[C@H](CCCCN)C(=O)N[C@H](CCCCN)C(=O)N[C@H](CC(C)C)C(=O)N[C@H](CC(C)C)C(=O)N[C@H](CCCCN)C(=O)N[C@@H](C(=O)N[C@H](CC(C)C)C(=O)N[C@H](CO)C(=O)N[C@H](CCCCN)C(=O)N[C@H](C)C(=O)N[C@H](CCCN)C(=O)N[C@H](C)C(=O)N[C@H](C)C(=O)N[C@H](CCCN)C(=O)N[C@H](CC(C)C)C(=O)N[C@H](CCCCN)C(=O)N[C@@H](C(=O)N[C@H](CC(C)C)C(=O)N[C@H](CC(C)C)C(=O)N[C@H](CCCCN)C(=O)N[C@H](C)C(=O)N[C@H](CC(C)C)C(=O)N[C@H](CO)C(=O)N[C@H](CCCCN)C(N)=O)[C@H](C)O)[C@H](C)O [D41(Orn13/Orn16)]
MICGM [1]: 0.8 µM | MICGM [2]: 0.6 µM | MICGM [3]: 1.0 µM | HC50 at 18 h [4, 7]: 34 µM and 96 µg/mL | HC50 [5]: 34.0 µM

CC(=O)N[C@H](CCCCN)C(=O)N[C@H](CC(C)C)C(=O)N[C@H](CCN)C(=O)N[C@H](CO)C(=O)N[C@H](CC(C)C)C(=O)N[C@H](CC(C)C)C(=O)N[C@H](CCN)C(=O)N[C@@H](C(=O)N[C@H](CC(C)C)C(=O)N[C@H](CO)C(=O)N[C@H](C)C(=O)N[C@H](C)C(=O)N[C@H](CCCCN)C(=O)N[C@H](CCN)C(=O)N[C@H](CCN)C(=O)N[C@H](CCCCN)C(=O)N[C@H](CC(C)C)C(=O)N[C@H](C)C(=O)N[C@@H](C(=O)N[C@H](CC(C)C)C(=O)N[C@H](CC(C)C)C(=O)N[C@H](CCN)C(=O)N[C@H](C)C(=O)N[C@H](CC(C)C)C(=O)N[C@H](CO)C(=O)N[C@H](CO)C(N)=O)[C@H](C)O)[C@H](C)O [Peptide D104, Ac-KL(Dbu)SLL(Dbu)TLSAAK(Dbu)(Dbu)KLATLL(Dbu)ALSS-amide] (Ac-[dK][dL][dDab][dS][dL][dL][dDab][dT][dL][dS][dA][dA][dK][dDab][dDab][dK][dL][dA][dT][dL][dL][dDab][dA][dL][dS][dS]-NH2)
tR, relative hydrophilicity/hydrophobicity [6]: 59.2 min | HC50 at 18 h ([4]; human): > 4000 µg/mL and > 1.49 mM | Hemolysis of human red blood cells, in words [5]: basically no hemolysis
